Assay results published in ChEMBL document CHEMBL1136647, “Visual detection of AMP and real-time monitoring of cyclic nucleotide phosphodiesterase (PDE) activity in neutral aqueous solution. Chemosensor-coupled assay of PDE and PDE inhibitors” (Bioorg Med Chem Lett, 2003).

Experiment: Inhibitory concentration against phosphodiesterase from bovine heart

IC50: 36 µM
SMILES: CC(C)Cn1c(=O)n(C)c(=O)c2nc[nH]c21 [ISOBUTYLMETHYLXANTHINE]
